Laboratory results reported in US20230160878A1, “METHOD OF SCREENING A THERAPY FOR INDUCTION OF FERROPTOSIS” (priority 2020, published 2023).

How the values were obtained:
HMOX1 [1] = assay: RT-qPCR of HMOX1 expression in A673 cells; assay type: cell-based; conditions: A673, 1 μM; for relative expression of HMOX1 in absence of ferrostatin-1: four hours, relative to ACTB
Procedure: (§1) To confirm HMOX1 induction by the GPX4 inhibitors, an RT-qPCR assay was performed using three ferroptosis sensitive cancer cell lines: the fibrosarcoma cell line HT-1080, a Ewing's sarcoma cell line A673, and a renal clear cell carcinoma cell line 786-O. Briefly, cells were exposed to 1 μM ML162 or 1 μM RSL3 for 4 hours, RNA was isolated and an RT-qPCR assay was performed.
(§2) Briefly, HT-1080, A673, and 786-O cells were exposed to 1 μM ML162 or 1 μM RLS3 with or without 1 μM ferrostatin-1 for four hours, RNA was isolated and an RT-qPCR assay was performed to quantify HMOX1 expression. DMSO was used as a control exposure.

HMOX1 [2] = assay: RT-qPCR of HMOX1 expression in 786-O cells; assay type: cell-based; conditions: 1 μM; for relative expression of HMOX1 in absence of ferrostatin-1: four hours, relative to ACTB
Procedure: as §1, §2

HMOX1 [3] = assay: nascent RNA sequencing, transcriptional response to GPX4 inhibitors, IMR90; assay type: cell-based; conditions: IMR90, 1 μM, 1 hour
Procedure: (§3) To assess the transcriptional response of a cell to inhibition of GPX4, we exposed two cell lines to two different chemical inhibitors of GPX4 (ML162 and RSL3; available from Sigma Aldrich and Apex Bio respectively) and examined the transcriptional responses using a nascent RNA sequencing protocol. Briefly, a fibrosarcoma cell line HT-1080 and a lung fibroblast cell line IMR90 were exposed to 1 μM ML162 or 1 μM RSL3 for 1 hour and the nascent RNA sequencing protocol was performed.

HMOX1 [4] = assay: nascent RNA sequencing, transcriptional response to GPX4 inhibitors, HT-1080; assay type: cell-based; conditions: HT-1080, 1 μM, 1 hour
Procedure: as §3

HMOX1 [5] = assay: RT-qPCR of HMOX1 expression in HT-1080 cells; assay type: cell-based; conditions: for HMOX1 induction with versus without ferrostatin-1: HT-1080, sodium arsenite 80 μM, hemin 5 μM, RSL3 1 μM, with or without 1 μM ferrostatin-1, four hours, normalized to DMSO
Procedure: as §1
To further validate induction of HMOX1 mRNA expression by GPX4 inhibition, RT-qPCR was performed using varying doses of the RSL3 inhibitor. Briefly, HT-1080 cells were exposed to 5 μM RSL3, 1 μM RSL3, and 0.2 μM RSL3 for four hours, RNA was isolated and an RT-qPCR assay was performed to quantify HMOX1 expression. DMSO was used as a control exposure.
as §2
Sodium arsenite and hemin are known to be inducers of general oxidative stress in cells. Briefly, HT-1080 cells were exposed to sodium arsenite (80 μM), hemin (5 μM), ML162 (1 μM), or RSL3 (1 μM) with or without 1 μM ferrostatin-1 for four hours, RNA was isolated and an RT-qPCR assay was performed to quantify HMOX1 expression. DMSO was used as a control exposure.

HMOX1 [6] = assay: RT-qPCR rescue of GPX4 inhibitor-mediated HMOX1 induction by ferrostatin-1 (HT-1080, A673 and 786-O pooled statement); assay type: cell-based; conditions: 1 μM ferrostatin-1 with 1 μM ML162 or RSL3, HT-1080, A673, 786-O, four hours
Procedure: as §2

[7] = system: HT-1080, A673, and 786-O cells lines; conditions: ferrostatin-1 added to culture media; HT-1080, A673, 786-O; cited from earlier work
[8] = HT-1080, 1 μM, four hours, relative to ACTB
[9] = 4 hours, normalized to DMSO control, n=2

Row | Molecule | relative expression of HMOX1 in absence of ferrostatin-1 (HMOX1 [1]) | relative expression of HMOX1 in absence of ferrostatin-1 (HMOX1 [2]) | HMOX1 differential expression (nascent transcription) (HMOX1 [3]) | HMOX1 differential expression (nascent transcription) (HMOX1 [4]) | relative expression of HMOX1 in absence of ferrostatin-1 (HMOX1 [5]; [8]) | HMOX1 induction with versus without ferrostatin-1 (HMOX1 [5]) | further results
1 | COc1ccc(N(C(=O)CCl)C(C(=O)NCCc2ccccc2)c2cccs2)cc1Cl (centres unmarked) [ML162] | HMOX1 expression was observed | HMOX1 expression was observed | strongly differentially expressed | strongly differentially expressed | HMOX1 expression was observed |  | relative expression of HMOX1 in presence of ferrostatin-1 (HMOX1 [5]; HT-1080, 1 μM with 1 μM ferrostatin-1, four hours, relative to ACTB): induced HMOX1 even in the presence of ferrostatin-1
2 | COC(=O)c1ccc([C@@H]2c3[nH]c4ccccc4c3C[C@@H](C(=O)OC)N2C(=O)CCl)cc1 [RSL3] | HMOX1 expression was observed | HMOX1 expression was observed | strongly differentially expressed | strongly differentially expressed | HMOX1 expression was observed | dependent on lipid peroxidation | fold induction for HMOX1 mRNA (HMOX1 [1]; [9]): induced; fold induction for HMOX1 mRNA (HMOX1 [2]; [9]): induced; fold induction for HMOX1 mRNA (HMOX1 [5]; HT-1080, 1 μM, 4 hours, normalized to DMSO control, n=2): induced; relative expression level of HMOX1, dose dependence (HMOX1 [5]; HT-1080, 5 μM, 1 μM and 0.2 μM, four hours, relative to ACTB): proportional to the dose
3 | CCOC(=O)c1ccc(NC2CCCCC2)c(N)c1 [ferrostatin-1] |  |  |  |  |  |  | effect of ferrostatin-1 on HMOX1 induction by GPX4 inhibitors (HMOX1 [6]): sufficient to prevent induction of HMOX1 in most conditions; cellular viability of cells treated with small molecules that induce lipid peroxidation [7]: rescues cellular viability
4 | O=[As]O [sodium arsenite] |  |  |  |  |  | not affected by the presence of ferrostatin-1 | 
5 | hemin |  |  |  |  |  | not affected by the presence of ferrostatin-1 | 
